Assays:
Sarmonella typhii = settings: on Sarmonella typhii; cited from earlier work
[1] = test system: STKM (a stomach cancer cell line); test: DNA Laddering assay; type: cell-based; settings: 2 ml of BA of 2.5 mg/ml, 48 hrs, FIG. 6
Text: (§1) The DNA Laddering assay, the TUNEL assay and the Caspase assay as described in the examples below are general methods for determining whether a cell arrives at death through an apoptosis route or not. For the DNA Laddering assay, see Shin Apoptosis Jikken-ho (edited by K. Tsujimoto, S. Tone, T. Yamada, 59-66, Yodosya, 1999). For the TUNEL assay, see Shin Apoptosis Jikken-ho (edited by K. Tsujimoto, S. Tone, T. Yamada, 67-74, Yodosya, 1999). For the Caspase assay, see Shin Apoptosis Jikken-ho (edited by K. Tsujimoto, S. Tone, T. Yamada, 198-200, Yodosya, 1999).
(§2) For a cell group capable of being guided to the cell mortality, it was determined that through which route, apoptosis or necrosis, the cell arrived at death. Namely, BA was added to the cell at a certain concentration or more necessary to guide to the cell mortality, and the cell was collected after confirmation of the change in shape. Then, the DNA Laddering assay with gel electrophoresis to investigate the DNA fragmentation and the TUNEL assay with the cell dyeing were carried out.
2 ml of BA of 2.5 mg/ml was added to 1.5×10^6 cells (STKM) followed by incubating at 37° C. for 48 hrs to collect the cells. The collected cells were centrifuged and added in 100 μl of lysis buffer (10 mM EDTA, 50 mM Tris-HCl, pH 8.0, 0.5% SDS, 0.5 mg/ml Proteinase K), followed by incubating at […] for 3 hrs. […]

Caspase-8 = Caspase-8 activity assay; type: cell-based; settings: 2 ml of BA of 2.5 mg/ml, 48 hrs
Text: as §1
(§3) To 1.5×10^6 cells, 2 ml of BA of 2.5 mg/ml for a test sample, the equal amount of physiological saline for a negative control sample, and Arac 1×10^−5M (Kirosaito, Nippon Shinyaku) for a positive control sample were added respectively, each of which was followed by incubating at 37° C. for 48 hrs to recover the cells. Then, the CPP32/Caspase-3, -8 Colorimetric Protease Assay kit (MBL Co.) was applied to the samples. The application was briefly as follows: • 1. […]

[2] = test system: umbilical cord cell line (Huvec); test: colorimetric assay on a normal cell; type: cell-based; settings: FIG. 10
Procedure: (§4) 100% gulutalaldehyde was added to each of samples by a ¼ the medium amount (250 μl), then left to stand at a room temperature for 15 min. After washing, 250 μl of 0.05% Methylene Blue in PBS was added and then left to stand at a room temperature for 15 min. After washing, 250 μl of 0.33N HCl was added, followed by leaving to stand at a room temperature for 15 min and measuring the OD (600 nm).
(§5) In order to confirm that the BA administration effects specifically a cancer cell to arrive at death, the colorimetric assay was carried out on a normal cell, that is, an umbilical cord cell line (Huvec) and a lung cell line (WI38), in the same way as in Example 1. The stomach cancer cell line (STKM) was used for a control.

lung cell line (WI38) = test: colorimetric assay on a normal cell; type: cell-based; settings: FIG. 10
Procedure: as §4, §5

[3] = test system: stomach cancer cell line (STKM); test: cell shape by inverted microscope in vitro; type: cell-based; settings: BA 2.5 mg/ml, 37° C. for 48 hrs, FIG. 3
Procedure: (§6) To 1×10^6 cells of a stomach cancer cell line (STKM), BA was added by such proportional concentrations as 1, 1.5, 2.0, 2.5 and 5 mg/ml. An equal amount of the physiological saline was added to prepare a control sample. All the samples were incubated at 37° C. for 48 hrs. The shape of the cell was studied through an inverted microscope. The adhesiveness and the mortality of the cell were measured by the calorimetric assay and the thymidine incorporate assay.
One ml of BA of 2.5 mg/ml was added to 1×10^6 cells followed by incubating at 37° C. for 48 hrs to get the image as shown in FIG. 3. The equal amount of physiological saline was similarly added, followed by incubating in the same way to get the control. […] The nucleus also got remarkably blackened. The above result confirms that a stomach cancer cell arrived at death in vitro.

[4] = in body; cited from earlier work
Escherichia coli = settings: on Escherichia coli; cited from earlier work
[5] = test system: stomach cancer cell line (STKM) tumor; test: antitumor effect on STKM tumor in nude mouse in vivo
Procedure: 1×10^8 cells of a stomach cancer cell line (STKM) were subcutaneously injected in the back of a nude mouse. When a tumor grew to have a diameter of 5 mm or more after 8 weeks, BA was administrated to the tumor or around the tumor by 4 mg/0.5 ml twice a week for 4 weeks. For a control, 0.5 ml of physiological saline was locally injected to the tumor. The tumor diameter was measured. The tumor tissue was taken out and subjected to the H-E dyeing to observe with a microscope.
A stomach cancer cell line (STKM) was implanted in a living body. When a tumor grew to have a diameter of 5 mm or more, BA was administrated by 4 mg/0.5 ml twice a week for 4 weeks. […] The tumor diameter decreased to the ½ or less after the 32 mg administration (4 weeks).
FIGS. 4 and 5 show the images obtained by extracting the tumor after 4 weeks of administration, fixing with 10% formalin, slicing to 3 μm pieces and H-E dyeing. […] The above result confirms that the stomach cancer cell arrived at death in vivo.

[6] = test system: stomach cancer cell line (STKM); test: cell adhesiveness test by the calorimetric assay; type: cell-based; settings: 37° C. for 48 hrs, OD 600 nm, FIG. 1
Text: The calorimetric assay as described in the examples below can be employed for assaying the adhesiveness of a cell, and the thymidine incorporate assay can be employed for assaying the mortality of a cell. These two assays are general methods for determining the behavior of a tumor cell. For the colorimetric assay, see Enhancer sequences of DF3 gene regulate expression of the herpes simplex virus thymidine kinase gene and confer sensitivity of human breast cancer cell to ganciclovir: Manome Y, Abe M, Hagen F. M, Fine A. H, and Kufe W. D, Cancer Research 54:5408-5413, 1994. For the thymidine incorporate assay, see Meneki Jikken Sousa-ho II (edited by S. Uda, S. Konda, Y. Honsho, T, Hamaoka, 773-774, Nanko-do, 1995).
as §6
(1) The Cell Adhesiveness Test by the Calorimetric Assay:
100% gulutalaldehyde was added to each of samples by a ¼ the medium amount (250 μl), then left to stand at a room temperature for 15 min. […]

STKM cells = test: TUNEL assay; type: cell-based; settings: 2 ml of BA of 2.5 mg/ml, 48 hrs, FIG. 7
Text: as §1, §2
2 ml of BA of 2.5 mg/ml was added to 1.5×10^5 cells (STKM) on a slide glass, followed by incubating at 37° C. for 48 hrs and fixing with 1% paraformaldehyde in PBS at a room temperature for 10 min. For a control, the equal amount of physiological saline was added. […]

[7] = test system: breast cancer cell line BSMZ; test: tests as in Examples 1, 2 and 3; type: cell-based
Procedure: (§7) The tests were carried out on a breast cancer cell line (MCF-7, BSMZ), a large bowel cancer cell line (DLD, LOVO), a thyroid gland cancer cell line (SW1736), and a pancreas cancer cell line (PA-1) in the same ways as in Examples 1, 2, and 3. As the result, the cell mortality began with about 1.5 mg/ml of BA to increase in proportion to the BA concentration, same as adhesiveness thereof.

[8] = test system: breast cancer cell line MCF-7; test: tests as in Examples 1, 2 and 3; type: cell-based
Procedure: as §7

[9] = test system: large bowel cancer cell line LOVO; test: tests as in Examples 1, 2 and 3; type: cell-based
Procedure: as §7

[10] = test system: thyroid gland cancer cell line SW1736; test: tests as in Examples 1, 2 and 3; type: cell-based
Procedure: as §7

[11] = test system: pancreas cancer cell line PA-1; test: tests as in Examples 1, 2 and 3; type: cell-based
Procedure: as §7

[12] = test system: large bowel cancer cell line DLD; test: tests as in Examples 1, 2 and 3; type: cell-based
Procedure: as §7

Caspase-3 = Caspase-3 activity assay; type: cell-based; settings: 2 ml of BA of 2.5 mg/ml
Text: as §1, §3

Staphylococcus aureus = settings: on Staphylococcus aureus; cited from earlier work

OCc1ccccc1 [BA, Benzyl alcohol]
phenol coefficient (Sarmonella typhii): 0.4
DNA laddering [1]: No laddering was recognized
Caspase-8 activity compared with positive control (Arac) (Caspase-8; FIG. 9): significantly lower than that of the positive control
Caspase activity compared with negative control (physiological saline) (Caspase-8; FIGS. 8, 9): almost equal to that of the negative control
cell death effect compared to STKM [2]: lower effect compared to the STKM
resistance to BA compared with Huvec (lung cell line (WI38)): more resistant to BA than the Huvec
cell death effect compared to STKM (lung cell line (WI38); colorimetric assay): lower effect compared to the STKM
cell shape [3]: cell shape changed from a spindle to a circle and got swollen
metabolism and excretion [4]: converted to benzoic acid in body and excreted as hippuric acid
phenol coefficient (Escherichia coli): 0.6
tumor diameter compared with the control ([5]; nude mouse, 4 mg/0.5 ml twice a week to or around the tumor, 16 mg administration (2 weeks)): contracted in diameter compared with the control
tumor diameter decrease ([5]; nude mouse, 4 mg/0.5 ml twice a week to or around the tumor, after the 32 mg administration (4 weeks)): ½
H-E dyed tumor tissue image ([5]; tumor extracted after 4 weeks of administration, FIG. 5): cells were scattered sparsely with the swollen cytoplasm, appearance of the inclusion bodies and contraction of the nucleus
BA concentration at which cell adhesiveness begins to decrease [6]: about 1.5 mg/ml
Digoxigenin dyeing in the nucleus (TUNEL) (STKM cells): no Digoxigenin dyeing image in the nucleus
BA concentration at which cell mortality begins to increase (same as adhesiveness) [7]: about 1.5 mg/ml
route of cell death [7]: did not arrive at death through an apoptosis route, but through a necrosis one
BA concentration at which cell mortality begins to increase (same as adhesiveness) [8]: about 1.5 mg/ml
route of cell death [8]: did not arrive at death through an apoptosis route, but through a necrosis one
BA concentration at which cell mortality begins to increase (same as adhesiveness) [9]: about 1.5 mg/ml
route of cell death [9]: did not arrive at death through an apoptosis route, but through a necrosis one
BA concentration at which cell mortality begins to increase (same as adhesiveness) [10]: about 1.5 mg/ml
route of cell death [10]: did not arrive at death through an apoptosis route, but through a necrosis one
BA concentration at which cell mortality begins to increase (same as adhesiveness) [11]: about 1.5 mg/ml
route of cell death [11]: did not arrive at death through an apoptosis route, but through a necrosis one
BA concentration at which cell mortality begins to increase (same as adhesiveness) [12]: about 1.5 mg/ml
route of cell death [12]: did not arrive at death through an apoptosis route, but through a necrosis one
Caspase-3 activity (Caspase-3; 37° C. for 48 hrs, FIG. 8): 45.4 RFI/well/Hr
Caspase-3 activity compared with positive control (Arac) (Caspase-3; 48 hrs, p<0.001): significantly lower than that of the positive control
phenol coefficient (Staphylococcus aureus): 0.5

From patent publication US20050075315A1, “Antitumor agent” (FUSO PHARMACEUTICAL INDUSTRIES, LTD, priority 2002, published 2005)
